Laboratory results taken from patent US20120028880A1, “VEGFR-1/NRP-1 TARGETING PEPTIDES” (priority 2007, published 2012).
pIC50: −log10 of the molar value. Like-named read-outs stand apart in the source and are kept apart here. Square brackets hold non-standard residues; d marks the D form. Ends that are not written are not given here. Peptide text beside a SMILES is read from it.

How the values were obtained:
VEGFR-1 [1] = target: T1, VEGFR-1 (Homo sapiens, UniProt P17948); test: Phage binding competition assay, immobilized VEGFR-1
T1 construct: purchased R&D Systems (Minneapolis, Minn.)
T1 sequence (P17948 27-1338, species assumed): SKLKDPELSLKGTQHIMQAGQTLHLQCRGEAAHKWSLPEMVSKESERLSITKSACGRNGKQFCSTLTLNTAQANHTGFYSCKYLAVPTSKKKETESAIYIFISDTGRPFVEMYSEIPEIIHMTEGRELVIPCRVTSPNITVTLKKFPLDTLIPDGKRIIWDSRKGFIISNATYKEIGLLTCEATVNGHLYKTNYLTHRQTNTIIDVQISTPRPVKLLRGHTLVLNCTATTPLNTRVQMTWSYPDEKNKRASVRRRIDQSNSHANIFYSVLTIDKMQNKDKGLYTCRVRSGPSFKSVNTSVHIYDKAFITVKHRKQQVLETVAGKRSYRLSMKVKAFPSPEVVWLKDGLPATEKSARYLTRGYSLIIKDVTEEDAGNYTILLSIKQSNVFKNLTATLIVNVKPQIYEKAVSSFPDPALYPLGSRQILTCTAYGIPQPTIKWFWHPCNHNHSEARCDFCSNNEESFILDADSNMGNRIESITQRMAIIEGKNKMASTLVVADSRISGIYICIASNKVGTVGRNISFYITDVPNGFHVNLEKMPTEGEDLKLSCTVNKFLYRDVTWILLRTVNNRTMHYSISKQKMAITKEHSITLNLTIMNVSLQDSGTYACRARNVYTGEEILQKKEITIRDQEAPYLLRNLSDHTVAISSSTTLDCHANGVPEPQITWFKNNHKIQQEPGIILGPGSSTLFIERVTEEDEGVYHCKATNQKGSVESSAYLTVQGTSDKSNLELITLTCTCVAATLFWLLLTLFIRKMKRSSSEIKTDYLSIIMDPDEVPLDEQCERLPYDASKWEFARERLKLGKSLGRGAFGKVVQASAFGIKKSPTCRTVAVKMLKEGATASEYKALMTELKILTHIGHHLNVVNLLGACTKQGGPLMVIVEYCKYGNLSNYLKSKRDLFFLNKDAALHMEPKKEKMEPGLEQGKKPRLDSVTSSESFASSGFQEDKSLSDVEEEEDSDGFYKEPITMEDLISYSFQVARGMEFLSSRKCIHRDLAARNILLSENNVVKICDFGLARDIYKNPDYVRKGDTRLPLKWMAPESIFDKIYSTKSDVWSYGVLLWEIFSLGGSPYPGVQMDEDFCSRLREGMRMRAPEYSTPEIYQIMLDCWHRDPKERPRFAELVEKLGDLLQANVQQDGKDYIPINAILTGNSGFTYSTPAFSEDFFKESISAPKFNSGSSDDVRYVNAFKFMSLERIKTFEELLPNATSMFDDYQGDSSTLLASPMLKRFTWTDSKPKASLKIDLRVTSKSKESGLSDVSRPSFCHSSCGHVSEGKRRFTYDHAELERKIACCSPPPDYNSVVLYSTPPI
Experimental: (§1) Phage assay. Phage was prepared by infection of log-phase culture of E. coli K91kan, and overnight growth in Luria-Bertani (LB) media supplemented with kanamycin (100 μg/ml) and tetracyclin (20 μg/ml) at 37° C. and 250 rpm. Phage was precipiated from the media supernatant by the PEG/NaCl method, and phage titer determined by serial dilution and colony counting (Giordano, 2001). For the phage binding and competition assays, VEGFR-1, NRP-1 or BSA (10 μg/ml in PBS) was immobilized on microtiter wells overnight at 4° C. Wells were washed twice, blocked with PBS 3% BSA for 2 h at room temperature and incubated with 10^9 TU of CPQPRPLC or negative control insertless (Fd-tet) phage in PBS 3% BSA. After 1 h at room temperature, wells were washed 10 times with PBS and phage bound to the immobilized receptors recovered by bacterial infection (Giordano, 2001).

NRP-1 [2] = target: T2, NRP-1 (Homo sapiens, UniProt O14786); test: Phage binding competition assay, immobilized NRP-1
T2 construct: purchased R&D Systems (Minneapolis, Minn.)
T2 sequence (O14786 22-923): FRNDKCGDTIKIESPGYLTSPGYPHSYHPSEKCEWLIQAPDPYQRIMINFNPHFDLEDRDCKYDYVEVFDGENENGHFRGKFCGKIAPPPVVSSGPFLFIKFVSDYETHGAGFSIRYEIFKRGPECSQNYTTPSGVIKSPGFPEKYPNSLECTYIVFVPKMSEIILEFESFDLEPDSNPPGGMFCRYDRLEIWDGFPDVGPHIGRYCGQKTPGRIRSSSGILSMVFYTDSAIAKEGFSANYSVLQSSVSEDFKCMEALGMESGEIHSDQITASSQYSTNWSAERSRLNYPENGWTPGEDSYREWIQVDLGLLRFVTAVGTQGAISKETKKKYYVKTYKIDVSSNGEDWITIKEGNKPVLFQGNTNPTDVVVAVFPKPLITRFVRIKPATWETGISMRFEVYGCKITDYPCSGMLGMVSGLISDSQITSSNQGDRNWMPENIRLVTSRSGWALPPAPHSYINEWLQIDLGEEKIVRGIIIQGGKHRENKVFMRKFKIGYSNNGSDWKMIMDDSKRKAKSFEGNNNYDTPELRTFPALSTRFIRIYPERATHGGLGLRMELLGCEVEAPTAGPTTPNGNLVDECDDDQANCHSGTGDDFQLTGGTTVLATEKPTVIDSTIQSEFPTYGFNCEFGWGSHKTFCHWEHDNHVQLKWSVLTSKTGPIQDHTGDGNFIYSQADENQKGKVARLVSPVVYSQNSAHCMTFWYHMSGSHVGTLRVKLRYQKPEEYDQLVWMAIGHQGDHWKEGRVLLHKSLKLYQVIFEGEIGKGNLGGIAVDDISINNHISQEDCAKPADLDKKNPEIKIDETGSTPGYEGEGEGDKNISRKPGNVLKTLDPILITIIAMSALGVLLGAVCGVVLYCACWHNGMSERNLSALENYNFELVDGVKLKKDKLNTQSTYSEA
Experimental: as §1

pancreatin = test: Protease resistance assay; assay type: in vitro ADME; conditions: increasing concentrations of pancreatin, highest ratio 400 pg/nmol; 2 h at 37° C.; MALDI-TOF
Experimental: Protease resistance assay. The D(LPR) and RPL peptides were diluted to 500 μg/ml in PBS and incubated with increasing concentrations of pancreatin (Sigma-Aldrich, St. Louis, Mo.) for 2 h at 37° C. Samples were then analyzed by mass spectroscopy (MALDI-TOF).

[3] = Weight loss in diet-induced obese mice; assay type: in vivo, mouse
Excerpt: The present inventors thus carried out studies to assess the ability of the LPR VEGFR-1 targeting peptides of the present invention to target fat tissue and thereby reduce weight in diet-induced obese mice. To this end, diet-induced obese mice were divided in groups and treated with the VEGFR-1/NRP-1 targeting peptide. C57BL/6 ]-60% DIO mice (36-weeks old) were purchased from The Jackson Laboratory. These animals were fed on a high calorie diet (J-60%) to produce a diet-induced obesity (DIO) phenotype. Animals were divided in groups and treated daily with: [Group 1]D(CLPRC) (SEQ ID NO:7) (N=5); [Group 2] CKGGRAKDC-GG-D(KLAKLAK)2 (SEQ ID NO:9) (N=3); [Group 3]D(CLPRC) combined with CKGGRAKDC-GG-D(KLAKLAK)2 (SEQ ID NO:10) (N=4); [Group 4] vehicle only (N=4). All animals were hydrated by intraperitoneally administration of 1 ml of saline solution (0.9% sodium chloride solution, USP quality) 30 minutes prior to treatment. Mice were treated daily with D(CLPRC) dissolved in phosphate buffered saline vehicle (PBS) (100 μl total injection) at a 50 mg/Kg/body weight dose (Groups 1 and 3); CKGGRAKDC-GG-D(KLAKLAK)2 (SEQ ID NO:9) in PBS was administered by subcutaneously (100 total volume) at 3 mg/Kg (Group 2) or at 1 mg/Kg when in combination with D(CLPRC) (Group 3) 5 days a week (Monday thru Friday). Mice were weighted once a week.

white fat = conditions: previous studies of the inventors; cited from earlier work
VEGFR-1 [4] = target: T1, VEGFR-1; conditions: Giordano et al., 2001; read-out: IC50 previously described for VEGFR-1; cited from earlier work
NRP-1 [5] = target: T2, NRP-1; conditions: Giordano et al., 2001; read-out: IC50 previously described for NRP-1; cited from earlier work
EF43.fgf4 derived tumors = test: Tumor growth, EF43.fgf4 breast cancer model; assay type: in vivo, mouse
Experimental: Tumor growth. The EF43.fgf4 cells were cultured in Dulbelco's modified Eegles medium supplemented with fetal bovine serum, glutamine and antibiotics. Cells were harvested before reaching confluence and injected subcutaneously in the mammary fatpad of Balb/c mice. Mier 10 days, tumor reached ˜50-80 mm^3 and were then separated into four groups with seven animals (N=7). Animals in each group were treated with either vehicle only (phosphate saline buffered solution) or with control peptide D(CAPAC) (SEQ ID NO:6) or D(LPR) (at 50 mg/Kg) or with the cyclic version D(CLPRC) (SEQ ID NO:7) (at 25 mg/Kg). Tumor volume was calculated by measuring the length of the long (L) and the short (S) sides of each tumor (V=S^2×L×[…]).
Statistical analysis. For the in vivo experiments, statistical significance of the difference was computed by Kruskal-Wallis test (non parametric one factor ANOVA method) with p<0.05 for each treatment day. […] Multiple comparisons were adjusted by Bejamini & Hochberg method. All the statistical analysis was computed using The R (Version 2.4.1) Project for Statistical Computing.

[6] = fat-zapper alone, 3 mg/Kg subcutaneously, obese mice
[7] = obese C57BL/6 mice, 50 mg/Kg daily intraperitoneally, over the treatment period

Compound: CC(C)C[C@@H](N)C(=O)N1CCC[C@@H]1C(=O)N[C@H](CCCNC(=N)N)C(=O)O [D(LPR), D-Leu-D-Pro-D-Arg] (H-[dL]-[dP]-[dR]-OH)
- pIC50 (VEGFR-1 [1]): 11.00 to 12.00
- pIC50 (NRP-1 [2]): 11.00 to 12.00
- proteolytic degradation by pancreatin (breakdown products by mass spectroscopy) (pancreatin): No breakdown products were observed

Compound: CC(C)C[C@H](NC(=O)[C@@H]1CCCN1C(=O)[C@@H](N)CCCNC(=N)N)C(=O)O [RPL, L-Arg-L-Pro-L-Leu, reference compound] (H-Arg-Pro-Leu-OH)
- proteolytic degradation by pancreatin (breakdown products by mass spectroscopy) (pancreatin): marked degradation

Compound: CKGGRAKDC-GG-D(KLAKLAK)2 (CKGGRAKDCGG[dK][dL][dA][dK][dL][dA][dK][dK][dL][dA][dK][dL][dA][dK]; cysteine pairing not given here) [fat-zapper, homing peptide … conjugated to the proapoptotic peptide D(KLAKLAK)2, reference compound]
- weight loss [3, 6]: about 10 grams
- weight loss, % body weight [3, 6]: 20 % body weight
- therapeutic dose that induces fat ablation (white fat): ≥ 3 mg/Kg/body weight

Compound: CPQPRPLC
- pIC50 (VEGFR-1 [4]): ~9.00
- pIC50 (NRP-1 [5]): 7.00 to 7.30

Compound: D(Cys Leu Pro Arg Cys) ([dC][dL][dP][dR][dC]; also: cyclic, ring type not given here) [D(CLPRC)]
- effect on tumor volume (EF43.fgf4 derived tumors; 25 mg/Kg daily, Balb/c mice): significant reduction in tumor volume
- effect on tumor volume (FIG. 3 legend) (EF43.fgf4 derived tumors; legend: 50 mg/Kg daily, after five days of treatment, compared to control animals): reduced tumor volume
- weight loss [3, 7]: about 3 grams
- weight loss, % of body weight [3, 7]: approx. 6 % of body weight
